For 47 compounds, IC50 results are on record in patent US8399452B2, “Dibenzo[b,f][1,4]oxazepin-11-yl-N-hydroxybenzamides as HDAC inhibitors” (Methylgene Inc., priority 2006, dated 2013).

One test concerns the target histone deacetylase (HDAC Enzyme). The test is described as follows: Inhibition of Histone Deacetylase Enzymatic Activity (Boc-Lys(Ac)-AMC, Fluor-de-Lys developer). Conditions: Table 9; read-out: HDAC Inhibition (IC50 μM) HDAC Enzyme. Format: biochemical. The method, then:
The following protocol is used to assay the compounds of the invention.
The mixture is pre-incubated for 5 minutes at room temperature. The reaction is started by bringing the temperature to 37° C. and adding 16 μl substrate. Total reaction volume is 50 μl.
In the Tables 8, 9 and 10, A≦[…]<B≦0.1 μM; 0.1 μM<C≦1 μM; and 1 μM<D≦10 μM.
As usually defined, the IC50 is the concentration needed to halve the response being measured. For the compound `O=C(NO)c1ccc(N2C[C@@H]3C[C@H]2CN3c2cccc(C(F)(F)F)c2)nn1` [N-hydroxy-6-((1S,4S)-5-(3-(trifluoromethyl)phenyl)-2,5-diazabicyclo[2.2.1]heptan-2-yl)pyridazine-3-carboxamide], the IC50 lay within 0.1 to 1 µM.
As to `O=C(NO)c1cnc(N2C[C@@H]3C[C@H]2CN3c2cc(C(F)(F)F)ccn2)nc1` [N-hydroxy-2-((1S,4S)-5-(4-(trifluoromethyl)pyridin-2-yl)-2,5-diazabicyclo[2.2.1]heptan-2-yl)pyrimidine-5-carboxamide], the 50% inhibitory concentration (IC50) is less than 0.05 µM.
As for `Cc1cccc(N2C[C@@H]3C[C@H]2CN3c2ncc(C(=O)NO)cn2)c1` [N-hydroxy-2-((1S,4S)-5-m-tolyl-2,5-diazabicyclo[2.2.1]heptan-2-yl)pyrimidine-5-carboxamide], the half-maximal inhibitory concentration (IC50) was less than 0.05 µM.
Same read-out and setting: under `Cc1cccc(N2CC3CC2CN3c2ccc(C(=O)NO)cc2)c1` (centres unmarked) [N-hydroxy-4-(5-m-tolyl-2,5-diazabicyclo[2.2.1]heptan-2-yl)benzamide] stands 0.1 to 1 µM; under `O=C(NO)c1cnc(N2C[C@@H]3C[C@H]2CN3)nc1` [2-((1S,4S)-2,5-diazabicyclo[2.2.1]heptan-2-yl)-N-hydroxypyrimidine-5-carboxamide], 0.1 to 1 µM.
On to `O=C(NO)c1cnc(N2C[C@@H]3C[C@H]2CN3c2cccc(C(F)(F)F)c2)cn1` [N-hydroxy-5-((1S,4S)-5-(3-(trifluoromethyl)phenyl)-2,5-diazabicyclo[2.2.1]heptan-2-yl)pyrazine-2-carboxamide], for which the IC50 lay within 0.1 to 1 µM.
Still for that read-out and setting: under `O=C(NO)c1cnc(N2C[C@@H]3C[C@H]2CN3c2ccccc2C(F)(F)F)nc1` [N-hydroxy-2-((1S,4S)-5-(2-(trifluoromethyl)phenyl)-2,5-diazabicyclo[2.2.1]heptan-2-yl)pyrimidine-5-carboxamide] stands 0.1 to 1 µM; under `O=C(NO)c1cnc(N2CC3CC2CO3)nc1` (centres unmarked) [2-(2-oxa-5-azabicyclo[2.2.1]heptan-5-yl)-N-hydroxypyrimidine-5-carboxamide], 0.1 to 1 µM.
Still for that read-out and setting: under `O=C(NO)c1cnc(N2C[C@H]3C[C@@H]2CN3c2cc(C(F)(F)F)ccn2)nc1` [N-hydroxy-2-((1R,4R)-5-(4-(trifluoromethyl)pyridin-2-yl)-2,5-diazabicyclo[2.2.1]heptan-2-yl)pyrimidine-5-carboxamide] stands less than 0.05 µM; under `O=C(NO)c1cnc(N2C[C@@H]3C[C@H]2CN3c2cc(C(F)(F)F)nc3ccccc23)nc1` [N-hydroxy-2-((1S,4S)-5-(2-(trifluoromethyl)quinolin-4-yl)-2,5-diazabicyclo[2.2.1]heptan-2-yl)pyrimidine-5-carboxamide], less than 0.05 µM.
Still for that read-out and setting: for `O=C(NO)c1cnc(N2C[C@@H]3C[C@H]2CN3C(=O)N2CCCC2)nc1` [N-hydroxy-2-((1S,4S)-5-(pyrrolidine-1-carbonyl)-2,5-diazabicyclo[2.2.1]heptan-2-yl)pyrimidine-5-carboxamide] the value was 0.05 to 0.1 µM.

The same test, now with this note: Table 10; read-out: HDAC Inhibition (IC50 μM) HDAC Enzyme.
Turning to `O=C(CCCCCC(=O)N1c2ccccc2C=Cc2ccccc21)NO` [(Z)-7-(5H-dibenzo[b,f]azepin-5-yl)-N-hydroxy-7-oxoheptanamide], the 50% inhibitory concentration (IC50) is less than 0.05 µM.
Same read-out and setting: under `O=C(CCCCCCCN1C(=O)CN=C(c2ccccc2)c2ccccc21)NO` [(Z)-N-hydroxy-8-(2-oxo-5-phenyl-2,3-dihydro-1H-benzo[e][1,4]diazepin-1-yl)octanamide] stands 0.1 to 1 µM.
On to `CN1C(=O)CN=C(c2ccccc2)c2ccc(/C=C/C(=O)NO)cc21` [(E)-N-hydroxy-3-((Z)-1-methyl-2-oxo-5-phenyl-2,3-dihydro-1H-benzo[e][1,4]diazepin-8-yl)acrylamide], for which the IC50 was in the range of 0.1 to 1 µM.
Same read-out and setting: for `O=C(CCCCCCC(=O)N1Cc2ccccc2Oc2ccccc21)NO` [8-(dibenzo[b,f][1,4]oxazepin-10(11H)-yl)-N-hydroxy-8-oxooctanamide] the value was 0.1 to 1 µM; for `O=C(Cc1ccc(CN2C(=O)c3ccccc3Oc3ccccc32)cc1)NO`, 0.1 to 1 µM.
With `O=C(CCCCON=C1c2ccccc2CCc2ccccc21)NO`, the IC50 is 0.1 to 1 µM.
On the same count and under the same terms, under `O=C(C=C1c2ccccc2C=Cc2ccccc21)NO` stands 0.1 to 1 µM.
The same measure, in the same setting: under `O=C(CCCCCCN1C(=O)c2cccnc2N(C2CC2)c2ccccc21)NO` [7-(11-cyclopropyl-5-oxo-5H-benzo[b]pyrido[2,3-e][1,4]diazepin-6(11H)-yl)-N-hydroxyheptanamide] stands 0.05 to 0.1 µM; under `O=C(NO)c1cccc(CN2c3ccccc3Oc3ccccc32)c1` [3-((10H-phenoxazin-10-yl)methyl)-N-hydroxybenzamide], 1 to 10 µM; under `O=C(NO)c1ccc(Cn2c(-c3ccccc3)cc3ccccc32)cc1` [N-hydroxy-4-((2-phenyl-1H-indol-1-yl)methyl)benzamide], 0.1 to 1 µM.
Still for that read-out and setting: under `O=C(NO)c1ccc(ON=C2c3ccccc3CCc3ccccc32)cc1` stands 0.1 to 1 µM; under `O=C(NO)c1cnc(NC2c3ccccc3C=Cc3ccccc32)nc1`, less than 0.05 µM.
For `O=C(/C=C/c1ccc(CN2C(=O)c3cccnc3N(C3CC3)c3ccccc32)cc1)NO` [(E)-3-(4-((11-cyclopropyl-5-oxo-5H-benzo[b]pyrido[2,3-e][1,4]diazepin-6(11H)-yl)methyl)phenyl)-N-hydroxyacrylamide], the concentration for half-maximal inhibition (IC50) is less than 0.05 µM.
Still for that read-out and setting: for `O=C(CCCCCCN1c2ccccc2Oc2ccccc2S1(=O)=O)NO` the value was 0.1 to 1 µM.
As to `O=C(CCCCCCN1Cc2ccccc2Oc2ccccc21)NO` [7-(dibenzo[b,f][1,4]oxazepin-10(11H)-yl)-N-hydroxyheptanamide], the IC50 is 0.1 to 1 µM.
`O=C(/C=C/c1ccc2c(c1)NC(=O)CN=C2c1ccccc1)NO` [(E)-N-hydroxy-3-((Z)-2-oxo-5-phenyl-2,3-dihydro-1H-benzo[e][1,4]diazepin-8-yl)acrylamide]: the IC50 was in the range of 0.05 to 0.1 µM.
The same measure, in the same setting: for `O=C(NO)c1ccc(COC2c3ccccc3CCc3ccccc32)cc1` the value was 0.1 to 1 µM.
On to `O=C(NO)c1ccc(CNC2c3ccccc3COc3ccccc32)cc1` (centres unmarked) [4-((6,11-dihydrodibenzo[b,e]oxepin-11-ylamino)methyl)-N-hydroxybenzamide], for which the IC50 lay in the range of 0.1 to 1 µM.
Still for that read-out and setting: for `O=C(CCCCCN1c2ccccc2C=Cc2ccccc21)NO` [(Z)-6-(5H-dibenzo[b,f]azepin-5-yl)-N-hydroxyhexanamide] the value was less than 0.05 µM; for `O=C(CCCCCCN1c2ccccc2C=Cc2ccccc21)NO` [(Z)-7-(5H-dibenzo[b,f]azepin-5-yl)-N-hydroxyheptanamide], less than 0.05 µM.

The test is the same for the next values; noted with them: read-out: HDAC Inhibtion (IC50 μM) HDAC Enzyme.
On to `O=C(NO)c1ccc(C2=Nc3ccccc3Oc3c(O)cccc32)cc1` [(Z)-N-hydroxy-4-(4-hydroxydibenzo[b,f][1,4]oxazepin-11-yl)benzamide], for which the IC50 is 0.05 to 0.1 µM.
Turning to `O=C(NO)c1ccc(C2=Nc3ccccc3Oc3ccccc32)o1` [(E)-5-(dibenzo[b,f][1,4]oxazepin-11-yl)-N-hydroxyfuran-2-carboxamide], the IC50 was 1 to 10 µM.
Turning to `O=C(NO)c1ccc(CCNC2=Nc3ccccc3Oc3ccccc32)cc1` [(E)-4-(2-(dibenzo[b,f][1,4]oxazepin-11-ylamino)ethyl)-N-hydroxybenzamide], the IC50 fell in the range of 0.1 to 1 µM.
Same read-out and setting: for `CN1c2ccccc2Oc2ccccc2C1c1ccc(C(=O)NO)cc1` (centres unmarked) [N-hydroxy-4-(10-methyl-10,11-dihydrodibenzo[b,f][1,4]oxazepin-11-yl)benzamide] the value was 0.1 to 1 µM.
On to `O=C(NO)c1ccc(C2=Nc3ccccc3Oc3c(OC(F)(F)F)cccc32)cc1` [(Z)-N-hydroxy-4-(4-(trifluoromethoxy)dibenzo[b,f][1,4]oxazepin-11-yl)benzamide], for which the concentration for half-maximal inhibition (IC50) was in the range of 0.1 to 1 µM.
Same read-out and setting: under `C[S+]([O-])c1cccc2c1Oc1ccccc1N=C2c1ccc(C(=O)NO)cc1` (centres unmarked) [(Z)-N-hydroxy-4-(4-(methylsulfinyl)dibenzo[b,f][1,4]oxazepin-11-yl)benzamide] stands 0.05 to 0.1 µM; under `O=C(NO)c1ccc(C2=Nc3ccsc3Oc3ccccc32)cc1` [(Z)-4-(benzo[f]thieno[2,3-b][1,4]oxazepin-5-yl)-N-hydroxybenzamide], 0.1 to 1 µM; under `O=C(NO)c1ccc(C2=Nc3ccccc3Sc3ccccc32)cc1` [(Z)-4-(dibenzo[b,f][1,4]thiazepin-11-yl)-N-hydroxybenzamide], 0.1 to 1 µM.
With `O=C(NO)c1ccc(C2=Nc3ccccc3Oc3c(F)cccc32)cc1` [(Z)-4-(4-fluorodibenzo[b,f][1,4]oxazepin-11-yl)-N-hydroxybenzamide], the IC50 fell in the range of 0.1 to 1 µM.
In the case of `Cc1ccc2c(c1)N=C(c1ccc(C(=O)NO)cc1)c1ccccc1O2` [(Z)-N-hydroxy-4-(8-methyldibenzo[b,f][1,4]oxazepin-11-yl)benzamide], the IC50 is 0.05 to 0.1 µM.
Turning to `O=C(NO)c1ccc(C2=Nc3ccccc3Oc3cc(F)ccc32)cc1` [(Z)-4-(3-fluorodibenzo[b,f][1,4]oxazepin-11-yl)-N-hydroxybenzamide], the IC50 was in the range of 0.1 to 1 µM.
For `N#Cc1ccc2c(c1)Oc1ccccc1C(c1ccc(C(=O)NO)cc1)=N2` [(Z)-4-(7-cyanodibenzo[b,f][1,4]oxazepin-11-yl)-N-hydroxybenzamide], the IC50 is less than 0.05 µM.
On the same count and under the same terms, under `O=C(NO)c1ccc(C2=Nc3cc(C(F)(F)F)ccc3Oc3ccccc32)cc1` [(Z)-N-hydroxy-4-(8-(trifluoromethyl)dibenzo[b,f][1,4]oxazepin-11-yl)benzamide] stands 0.1 to 1 µM.
Regarding `O=C(NO)c1ccc(C2=Nc3cc(Cl)ccc3Oc3ccccc32)cc1` [(Z)-4-(8-chlorodibenzo[b,f][1,4]oxazepin-11-yl)-N-hydroxybenzamide], the IC50 lay in the range of 0.1 to 1 µM.
Take `COc1cccc2c1Oc1ccccc1N=C2c1ccc(C(=O)NO)cc1` [(Z)-N-hydroxy-4-(4-methoxydibenzo[b,f][1,4]oxazepin-11-yl)benzamide]: the IC50 lay in the range of 0.05 to 0.1 µM.
Consider `CCCc1cccc2c1Oc1ccccc1N=C2c1ccc(C(=O)NO)cc1` [(Z)-N-hydroxy-4-(4-propyldibenzo[b,f][1,4]oxazepin-11-yl)benzamide], for which the concentration for half-maximal inhibition (IC50) is 0.1 to 1 µM.
